Each block holds one molecule with its values, some of them ahead of it.
Tested on: 653999-131-R-J2-PDC complex spheroids, growth inhibition
Assay: Anticancer human tumor 653999-131-R-J2-PDC patient-derived lung adenocarcinoma cell line growth inhibition [RAS]
Conditions: for IC50: curve of first compound; for viability, T/C: stronger effect = lower value
Method in brief: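 Agents were tested in combination matrices in half-log decrements from a top concentration at or near clinical Cmax (10 microM if undetermined). Targets were multi-cell spheroids of tumour lines plus HUVEC and MSC stromal cells.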

[1] = second compound 0.000949 µM, first compound 0.000949 µM
[2] = second compound 0.000949 µM, first compound 0.003 µM
[3] = second compound 0.000949 µM, first compound 0.00949 µM
[4] = second compound 0.000949 µM, first compound 0.03 µM
[5] = second compound 0.000949 µM, first compound 0.0949 µM
[6] = second compound 0.000949 µM, first compound 0.3 µM
[7] = second compound 0.003 µM, first compound 0.000949 µM
[8] = second compound 0.003 µM, first compound 0.003 µM
[9] = second compound 0.003 µM, first compound 0.00949 µM
[10] = second compound 0.003 µM, first compound 0.03 µM
[11] = second compound 0.003 µM, first compound 0.0949 µM
[12] = second compound 0.003 µM, first compound 0.3 µM
[13] = second compound 0.00949 µM, first compound 0.000949 µM
[14] = second compound 0.00949 µM, first compound 0.003 µM
[15] = second compound 0.00949 µM, first compound 0.00949 µM
[16] = second compound 0.00949 µM, first compound 0.03 µM
[17] = second compound 0.00949 µM, first compound 0.0949 µM
[18] = second compound 0.00949 µM, first compound 0.3 µM
[19] = second compound 0.03 µM, first compound 0.000949 µM
[20] = second compound 0.03 µM, first compound 0.003 µM
[21] = second compound 0.03 µM, first compound 0.00949 µM
[22] = second compound 0.03 µM, first compound 0.03 µM
[23] = second compound 0.03 µM, first compound 0.0949 µM
[24] = second compound 0.03 µM, first compound 0.3 µM
[25] = second compound 0.0949 µM, first compound 0.000949 µM
[26] = second compound 0.0949 µM, first compound 0.003 µM
[27] = second compound 0.0949 µM, first compound 0.00949 µM
[28] = second compound 0.0949 µM, first compound 0.03 µM
[29] = second compound 0.0949 µM, first compound 0.0949 µM
[30] = second compound 0.0949 µM, first compound 0.3 µM
[31] = second compound 0.3 µM, first compound 0.000949 µM
[32] = second compound 0.3 µM, first compound 0.003 µM
[33] = second compound 0.3 µM, first compound 0.00949 µM
[34] = second compound 0.3 µM, first compound 0.03 µM
[35] = second compound 0.3 µM, first compound 0.0949 µM
[36] = second compound 0.3 µM, first compound 0.3 µM
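Further: spheroids exposed to the agents for seven days before the readout.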

IC50 (second compound 0.000949 µM): > 300 nM
IC50 (second compound 0.003 µM): > 300 nM
IC50 (second compound 0.00949 µM): > 300 nM
IC50 (second compound 0.03 µM): > 300 nM
IC50 (second compound 0.0949 µM): > 300 nM
IC50 (second compound 0.3 µM): > 300 nM
SMILES: CC1(C)CCC(Nc2ncc(C(F)(F)F)c(-c3c[nH]c4c(P(C)(C)=O)c(C#N)ccc34)n2)CN1 (centres undefined) + CCn1c(-c2cccnc2C(C)OC)c2c3cc(ccc31)N1CCOC(CC(NC(=O)C(C(C)C)N(C)C(=O)C3(F)CCN(C(=O)C#CC(C)(C)N(C)C)CC3)C(=O)N3CCCC(N3)C(=O)OCC(C)(C)C2)C1
viability, T/C [1]: 89.4%
viability, T/C [2]: 82.6%
viability, T/C [3]: 81.1%
viability, T/C [4]: 79.7%
viability, T/C [5]: 84.6%
viability, T/C [6]: 71.6%
viability, T/C [7]: 96%
viability, T/C [8]: 84.2%
viability, T/C [9]: 79.5%
viability, T/C [10]: 77.7%
viability, T/C [11]: 84.9%
viability, T/C [12]: 71.2%
viability, T/C [13]: 99.5%
viability, T/C [14]: 89.3%
viability, T/C [15]: 84.9%
viability, T/C [16]: 72%
viability, T/C [17]: 79.3%
viability, T/C [18]: 87.2%
viability, T/C [19]: 85.4%
viability, T/C [20]: 83.9%
viability, T/C [21]: 71%
viability, T/C [22]: 74.1%
viability, T/C [23]: 77.4%
viability, T/C [24]: 76.9%
viability, T/C [25]: 80.4%
viability, T/C [26]: 66.8%
viability, T/C [27]: 67.5%
viability, T/C [28]: 68%
viability, T/C [29]: 74%
viability, T/C [30]: 70.3%
viability, T/C [31]: 82.3%
viability, T/C [32]: 71.7%
viability, T/C [33]: 63.8%
viability, T/C [34]: 63.9%
viability, T/C [35]: 70.8%
viability, T/C [36]: 64.5%

IC50 (second compound 0.000949 µM): 13.3 nM
IC50 (second compound 0.003 µM): 12.6 nM
IC50 (second compound 0.00949 µM): 14.8 nM
IC50 (second compound 0.03 µM): 10.6 nM
IC50 (second compound 0.0949 µM): 7.78 nM
IC50 (second compound 0.3 µM): 5.63 nM
SMILES: CCc1c2c(nc3ccc(O)cc13)-c1cc3c(c(=O)n1C2)COC(=O)[C@]3(O)CC + CCn1c(-c2cccnc2C(C)OC)c2c3cc(ccc31)N1CCOC(CC(NC(=O)C(C(C)C)N(C)C(=O)C3(F)CCN(C(=O)C#CC(C)(C)N(C)C)CC3)C(=O)N3CCCC(N3)C(=O)OCC(C)(C)C2)C1
viability, T/C [1]: 92.6%
viability, T/C [2]: 84.4%
viability, T/C [3]: 52%
viability, T/C [4]: 35.9%
viability, T/C [5]: 30%
viability, T/C [6]: 16.7%
viability, T/C [7]: 86%
viability, T/C [8]: 77.3%
viability, T/C [9]: 52.8%
viability, T/C [10]: 35.9%
viability, T/C [11]: 28%
viability, T/C [12]: 20.4%
viability, T/C [13]: 104%
viability, T/C [14]: 84.1%
viability, T/C [15]: 55.2%
viability, T/C [16]: 37.8%
viability, T/C [17]: 28.7%
viability, T/C [18]: 17.3%
viability, T/C [19]: 91.8%
viability, T/C [20]: 75.7%
viability, T/C [21]: 51.9%
viability, T/C [22]: 31.4%
viability, T/C [23]: 22.3%
viability, T/C [24]: 16.3%
viability, T/C [25]: 90.6%
viability, T/C [26]: 66.4%
viability, T/C [27]: 47.5%
viability, T/C [28]: 29.9%
viability, T/C [29]: 19.3%
viability, T/C [30]: 12.4%
viability, T/C [31]: 81%
viability, T/C [32]: 57.8%
viability, T/C [33]: 44.9%
viability, T/C [34]: 26.3%
viability, T/C [35]: 17.6%
viability, T/C [36]: 11.5%

— PubChem BioAssay AID2060886 (Molecular Pharmacology Branch, DTP, NCI, 2025)
